Assay [1] concerns the target T1, porcine GR Ala610 (wild-type) (Sus scrofa, UniProt Q9N1U3, V610A).
T1 construct: expressed in transfected cells; host or cells: Cos-7
T1 sequence (Q9N1U3 1-782 V610A): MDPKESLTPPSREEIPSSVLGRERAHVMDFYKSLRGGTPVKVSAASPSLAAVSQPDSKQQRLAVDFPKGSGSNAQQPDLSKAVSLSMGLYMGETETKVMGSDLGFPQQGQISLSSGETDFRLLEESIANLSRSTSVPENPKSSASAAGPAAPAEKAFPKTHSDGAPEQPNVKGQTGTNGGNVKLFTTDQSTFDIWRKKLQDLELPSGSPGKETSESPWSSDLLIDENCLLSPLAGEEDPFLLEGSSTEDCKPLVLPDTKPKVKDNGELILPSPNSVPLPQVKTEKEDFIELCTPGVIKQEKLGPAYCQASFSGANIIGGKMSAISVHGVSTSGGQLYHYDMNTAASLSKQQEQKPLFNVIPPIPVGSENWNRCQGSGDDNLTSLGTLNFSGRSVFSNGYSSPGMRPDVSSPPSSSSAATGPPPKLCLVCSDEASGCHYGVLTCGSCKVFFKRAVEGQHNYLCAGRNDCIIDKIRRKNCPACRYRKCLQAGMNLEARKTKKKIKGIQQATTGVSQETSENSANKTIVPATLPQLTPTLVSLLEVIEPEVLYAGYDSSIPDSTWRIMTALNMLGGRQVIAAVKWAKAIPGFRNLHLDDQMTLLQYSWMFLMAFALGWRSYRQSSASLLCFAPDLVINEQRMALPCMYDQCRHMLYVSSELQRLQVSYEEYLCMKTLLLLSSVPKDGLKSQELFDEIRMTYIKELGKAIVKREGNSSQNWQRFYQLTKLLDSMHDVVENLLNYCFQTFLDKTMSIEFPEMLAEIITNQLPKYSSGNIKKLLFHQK
Put plainly: Transactivation assay (MMTV-luciferase reporter) in Cos-7 cells, wild-type Ala610 GR. The class given is cell-based. To be noted: for EC50: Cos-7 cells. As to the method: Porcine GR expression plasmids (pCMV-GRA610 or pCMV-GRV610) harboring the SNP NR3C1 c.1829C>T (causing the Ala610Val substitution) were used for a transactivation assay in Cos-7 cells as previously described. In brief, monkey kidney Cos-7 cells were seeded in 96-well plates at a density of 2.5×10^4 cells/well in DMEM (Invitrogen, Karlsruhe, Germany) with 10% FCS. Twenty-four hours after seeding, cells were co-transfected with 200 ng of expression vector, 100 ng of pGL4.36 reporter (Promega, Mannheim, Germany) and 2 ng of pRL-SV40 plasmid (Promega) according to the Lipofectamine 2000 protocol (Invitrogen). The reporter plasmid pGL4.36 expresses firefly luciferase under control of the glucocorticoid-inducible MMTV (Murine Mammary Tumor Virus Long Terminal repeat) promoter while the pRL-SV40 vector constitutively expresses the Renilla luciferase and was used to normalize for transfection efficiency. […] Therefore, cell media was replaced by DMEM supplemented with respective steroid concentrations and 10% charcoal-stripped FCS (PAA Laboratories, Coelbe, Germany). Twenty-four hours after stimulation, firefly and Renilla luciferase activities were measured using the Dual-Glo Luciferase Assay System (Promega) in a DTX 880 Multimode Detector (Beckman Coulter, Krefeld, Germany).
Transcript abundance was corrected for the copy number of expression plasmid.
For all steroids except testosterone, two separate experiments were performed in triplicate. Data were adjusted for transfection efficiency and the resulting luciferase ratios were normalized to cells that were treated with ethanol only. Fold-changes of transcriptional activity were compared using a generalized mixed linear model including fixed effects of genotype, hormone concentration, and the interaction of the two. Data were analyzed using SAS V9.3 software (SAS Institute, Cary, NC, USA). Least-square means were compared at each concentration and p-values were adjusted by Dunnett’s post-hoc test. Fold-change values were further adjusted to maximum relative luciferase induction and dose-response curves, EC50, and significance of EC50 differences were estimated using dose-response equation of GraphPad Prism 5 (GraphPad Software Inc, San Diego, CA).
In general terms: Reporter assays use an easily measured gene product as a stand-in for the process of interest.

The target in assay [2] is T2, porcine GR Val610 (mutant) (Sus scrofa, UniProt Q9N1U3).
T2 sequence (Q9N1U3 1-782): T1 sequence (Q9N1U3 1-782 V610A) with A610V
Nature of the assay: Transactivation assay (MMTV-luciferase reporter) in Cos-7 cells, mutant Val610 GR.
Description: Porcine GR expression plasmids (pCMV-GRA610 or pCMV-GRV610) harboring the SNP NR3C1 c.1829C>T (causing the Ala610Val substitution) were used for a transactivation assay in Cos-7 cells as previously described [13]. In brief, monkey kidney Cos-7 cells were seeded in 96-well plates at a density of 2.5×10^4 cells/well in DMEM (Invitrogen, Karlsruhe, Germany) with 10% FCS. Twenty-four hours after seeding, cells were co-transfected with 200 ng of expression vector, 100 ng of pGL4.36 reporter (Promega, Mannheim, Germany) and 2 ng of pRL-SV40 plasmid (Promega) according to the Lipofectamine 2000 protocol (Invitrogen). The reporter plasmid pGL4.36 expresses firefly luciferase under control of the glucocorticoid-inducible MMTV (Murine Mammary Tumor Virus Long Terminal repeat) promoter while the pRL-SV40 vector constitutively expresses the Renilla luciferase and was used to normalize for transfection efficiency. […] Therefore, cell media was replaced by DMEM supplemented with respective steroid concentrations and 10% charcoal-stripped FCS (PAA Laboratories, Coelbe, Germany). Twenty-four hours after stimulation, firefly and Renilla luciferase activities were measured using the Dual-Glo Luciferase Assay System (Promega) in a DTX 880 Multimode Detector (Beckman Coulter, Krefeld, Germany).

The target in assay [3] is AlaVal610 GR (Sus scrofa, UniProt Q9N1U3). To be noted: pituitary cytosol. As to the method: (§1) Pituitary glands were quickly removed from pigs after electronarcotization and exsanguination, snap-frozen, and stored at -80°C. […] Nine pools per genotype, each containing two to three samples, were analyzed. In total 40 pituitaries were used. Pituitaries from homozygous carriers of the alternative variant were not available due to its low frequency.
(§2) GR binding analysis was performed on the pooled samples as previously described. Briefly, tissues were homogenized in ice-cold 10 mM Tris-HCl buffer, pH 7.5, containing 12.5 mM EDTA, 10 mM sodium molybdate, […] sucrose, and 5 mM dithiothreitol using an electric homogenizer (Ultra-Turrax, IKA, Staufen, Germany). The homogenate was centrifuged at 120,000 × g for 60 min at 0–4°C to isolate cytosol (supernatant fraction). […] Non-specific binding was determined with a parallel incubation containing 500-fold excess of RU 28362 (kindly donated by Roussel Uclaf, France), which binds selectively to GR. The separation of bound from free ligand was performed by precipitation with dextran-coated charcoal and the receptor-[^3H]-steroid complexes were counted in the Tri-Carb 2900TR scintillation counter at 50% efficiency. Protein concentrations for each pool were determined with bovine serum albumin as a standard. Binding values were corrected for the amount of protein input. Individual binding curves for each pool were fitted using GraphPad Prism 5 as described above. Resulting KD and Bmax values were compared between genotypes using a mixed linear model implemented in SAS. The model included the effect of genotype and experimental batch.

For assay [4], the target named is T3, Ala610 GR (Sus scrofa, UniProt Q9N1U3, V610A). The conditions noted are these: [3H]-dexamethasone, pituitary cytosol, homozygous wild-type. As to the method: as §1, §2
The target in assay [5] is T3, Ala610 GR. To be noted: [3H]-dexamethasone, whole Cos-7 cells, mean ± SE. As to the method:
(§3) A whole-cell GR binding assay was adapted from the protocol previously described for peripheral blood mononuclear cells (PBMC). Cos-7 cells were seeded in 10-cm dishes and T75 flasks at a density of 1.75x10^5 cells/mL. After 24 hours in culture, cells were transfected with pCMV-GRA610 or pCMV-GRV610 using either 10 μg plasmid and 50 μL Fugene HD (Promega) for dishes or 15 μg plasmid and 75 μL Fugene HD for flasks. After another 24 hours in culture, media were replaced with serum-free DMEM to avoid contamination with steroids. One day later cells were pelleted, washed with PBS, and resuspended in DMEM supplemented with 10 mM HEPES buffer. […] After incubation, cells were washed with ice-cold PBS and centrifuged (10 min, 400 × g, 4°C) three times. Cell pellets were then resuspended in 100 μL PBS and mixed with 3 mL scintillation fluid (Rotiszint eco plus, Carl Roth GmbH, Karlsruhe, Germany). Radioactivity was measured in a spectral liquid scintillation counter (Tri-Carb 2900TR, Perkin Elmer Inc., USA) at 50% efficiency. The experiment was performed three times.
(§4) Saturation binding analysis included in nonlinear regression models implemented in GraphPad Prism 5 was used to fit binding curves to estimate the dissociation constant (KD, mean ± SE), maximum specific binding (Bmax, mean ± SE), and differences in these values dependent upon GR genotype.

In assay [6] the target is Val610 GR (Sus scrofa, UniProt Q9N1U3). Put plainly: cell-based. As to the method:
as §3, §4

In assay [7] the target is GFP-tagged Ala610 GR (Sus scrofa, UniProt Q9N1U3, V610A). To be noted: Cos-7 cells, after stimulation with dexamethasone. From the text: (§5) Green fluorescent protein (GFP)-tagged expression vectors were generated to track subcellular distribution and movement of both GR variants. In brief, the EGFP region was amplified from EGFP-N1 (Clontech, Heidelberg, Germany), using primers EGFP_N_fw and EGFP_N_rev (Table 1) and the proofreading PrimeSTAR HS DNA Polymerase (MoBiTec, Göttingen, Germany). The product was inserted into the pCMV-Tag1 vector (Agilent Technologies, Waldbronn, Germany) using NotI restriction sites. The resulting plasmid was further digested with BamHI and BglII restriction enzymes to insert BclI digested GR-alpha fragments. Therefore, GR-alpha fragments were amplified using cDNA of two individuals homozygous for the c.1829C>T SNP with primers GR_N-Flag_fw2 and GR_N-Flag_rev (Table 1). […]
(§6) Cos-7 cells were seeded in culture dishes (Greiner Bio-One, Frickenhausen, Germany) or 8-well chamber slides (VWR International, Hannover, Germany) for live cell imaging at a density of 1.6x10^5 cells/mL in DMEM with 10% FCS and transfected one day later with pCMV-GFP-GRA610 or pCMV-GFP-GRV610 using a Lipofectamine:DNA-ratio of 3:1. […] Before visualization by microscopy, media were replaced with phenol red-free DMEM supplemented with 5% charcoal stripped FCS, and the dish or slide to be analyzed was placed in a microscope incubator at 37°C and 5% CO2.

Assay [8] addresses GFP-tagged Val610 GR (Sus scrofa, UniProt Q9N1U3). To be noted: Cos-7 cells, after stimulation with dexamethasone.
Excerpt: as §5, §6

[9] abbreviates: wide concentration range 0.01 nM to 10 μM, 24 h stimulation.

Where a chain is given by its changes, count along the chain named. “Also recorded” adds a separate entry of the source. Like-named read-outs stand apart in the source and are kept apart here.

Sequence of AlaVal610 GR (Q9N1U3 whole entry): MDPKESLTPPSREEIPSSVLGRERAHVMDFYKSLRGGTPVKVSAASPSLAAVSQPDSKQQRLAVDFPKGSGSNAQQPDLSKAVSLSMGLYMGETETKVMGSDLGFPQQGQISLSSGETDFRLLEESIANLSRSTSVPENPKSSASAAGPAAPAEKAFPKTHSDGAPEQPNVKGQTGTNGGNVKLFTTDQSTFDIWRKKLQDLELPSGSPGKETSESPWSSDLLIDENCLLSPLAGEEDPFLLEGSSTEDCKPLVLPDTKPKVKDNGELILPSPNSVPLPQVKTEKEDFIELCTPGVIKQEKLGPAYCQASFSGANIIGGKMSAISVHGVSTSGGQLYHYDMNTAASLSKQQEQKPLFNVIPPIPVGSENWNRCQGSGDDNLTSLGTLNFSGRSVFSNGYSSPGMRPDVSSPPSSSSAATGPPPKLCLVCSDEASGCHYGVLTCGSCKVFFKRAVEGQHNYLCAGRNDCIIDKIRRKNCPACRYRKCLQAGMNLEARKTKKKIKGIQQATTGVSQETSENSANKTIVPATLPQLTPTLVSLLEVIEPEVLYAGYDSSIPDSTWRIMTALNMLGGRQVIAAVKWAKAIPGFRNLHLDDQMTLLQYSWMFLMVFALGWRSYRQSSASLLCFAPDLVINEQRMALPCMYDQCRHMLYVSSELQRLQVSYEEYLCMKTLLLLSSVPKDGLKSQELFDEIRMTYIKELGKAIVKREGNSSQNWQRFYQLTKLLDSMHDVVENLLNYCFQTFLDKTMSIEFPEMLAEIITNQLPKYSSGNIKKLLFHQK
Sequence of AlaVal610 GR (Q9N1U3 whole entry): as above
Sequence of Val610 GR (Q9N1U3 whole entry): as above
Sequence of GFP-tagged Val610 GR (Q9N1U3 whole entry): as above

In general, EC50 refers to the concentration that produces a half-maximal response. Low values mean a more potent agent, high ones a less potent agent. As to `C[C@]12CCC(=O)C=C1CC[C@@H]1[C@@H]2[C@@H](O)C[C@]2(C=O)[C@@H](C(=O)CO)CC[C@@H]12` [aldosterone], the EC50 was determined as 161 nM in assay [1] (setting [9]) and 50.6 nM in assay [2].

In the case of `C[C@]12CCC(=O)C=C1CC[C@@H]1[C@@H]2[C@@H](O)C[C@@]2(C)[C@H]1CC[C@]2(O)C(=O)CO` [cortisol], the EC50 turned out to be 37.2 nM in assay [1] (narrow concentration range); 44.7 nM in assay [1] (setting [9]); 36.5 nM in assay [2]; 22.9 nM in assay [2] (EC50 of transactivation, Val610 GR, Cos-7 cells, narrow concentration range).

Broadly, the Kd is a measure of binding affinity in units of concentration. The low end stands for a tighter complex, the high end for a looser complex. On to `C[C@@H]1C[C@H]2[C@@H]3CCC4=CC(=O)C=C[C@]4(C)[C@@]3(F)[C@@H](O)C[C@]2(C)[C@@]1(O)C(=O)CO` [dexamethasone], for which the Kd in assay [3] ([3H]-dexamethasone 0.2 to 24 nM, heterozygous carriers) came to 0.529 ± 0.068 nM; in assay [6] it was 6.08 nM. Further, the Bmax in assay [3] ([3H]-dexamethasone, heterozygous carriers) turned out to be 63.4 ± 5.0 fmol/mg protein; in assay [4] it was 62.2 ± 5.9 fmol/mg protein. The “increased affinity of heterozygous carriers compared to wild-type controls” value in assay [3] was determined as 1.7 fold. For the same compound, the “Bmax (maximum specific binding)” value worked out at 1479 ± 79.7 fmol/mL in assay [5] and 1204 ± 118.1 fmol/mL in assay [6] ([3H]-dexamethasone, whole Cos-7 cells, mean ± SE). In addition, the “time to full translocation into the nucleus” value in assay [7] and in assay [8] was not above 15 min throughout.

Consider `C[C@]12CC[C@H]3[C@@H](CCC4=CC(=O)CC[C@@]43C)[C@@H]1CC[C@@H]2O` [testosterone], for which the “activation of the MMTV-driven luciferase reporter” value in assay [1] (data not shown) was “unable to activate”; in assay [2] (Val610 GR, data not shown), “unable to activate; also recorded: remained insensitive”.

Source of the values: PMC5063400, “A Natural Mutation in Helix 5 of the Ligand Binding Domain of Glucocorticoid Receptor Enhances Receptor-Ligand Interaction” (PLoS ONE, 2016).
